# Assay results as given in patent publication US12421252B2, “Spiro (isobenzofuranazetidine) compounds for the treatment of autoimmune disease” (Hoffmann-La Roche Inc., priority 2020, dated 2025).
# Target: T1, human TLR7 (Homo sapiens, UniProt Q9NYK1)
# T1 sequence (Q9NYK1 27-1049): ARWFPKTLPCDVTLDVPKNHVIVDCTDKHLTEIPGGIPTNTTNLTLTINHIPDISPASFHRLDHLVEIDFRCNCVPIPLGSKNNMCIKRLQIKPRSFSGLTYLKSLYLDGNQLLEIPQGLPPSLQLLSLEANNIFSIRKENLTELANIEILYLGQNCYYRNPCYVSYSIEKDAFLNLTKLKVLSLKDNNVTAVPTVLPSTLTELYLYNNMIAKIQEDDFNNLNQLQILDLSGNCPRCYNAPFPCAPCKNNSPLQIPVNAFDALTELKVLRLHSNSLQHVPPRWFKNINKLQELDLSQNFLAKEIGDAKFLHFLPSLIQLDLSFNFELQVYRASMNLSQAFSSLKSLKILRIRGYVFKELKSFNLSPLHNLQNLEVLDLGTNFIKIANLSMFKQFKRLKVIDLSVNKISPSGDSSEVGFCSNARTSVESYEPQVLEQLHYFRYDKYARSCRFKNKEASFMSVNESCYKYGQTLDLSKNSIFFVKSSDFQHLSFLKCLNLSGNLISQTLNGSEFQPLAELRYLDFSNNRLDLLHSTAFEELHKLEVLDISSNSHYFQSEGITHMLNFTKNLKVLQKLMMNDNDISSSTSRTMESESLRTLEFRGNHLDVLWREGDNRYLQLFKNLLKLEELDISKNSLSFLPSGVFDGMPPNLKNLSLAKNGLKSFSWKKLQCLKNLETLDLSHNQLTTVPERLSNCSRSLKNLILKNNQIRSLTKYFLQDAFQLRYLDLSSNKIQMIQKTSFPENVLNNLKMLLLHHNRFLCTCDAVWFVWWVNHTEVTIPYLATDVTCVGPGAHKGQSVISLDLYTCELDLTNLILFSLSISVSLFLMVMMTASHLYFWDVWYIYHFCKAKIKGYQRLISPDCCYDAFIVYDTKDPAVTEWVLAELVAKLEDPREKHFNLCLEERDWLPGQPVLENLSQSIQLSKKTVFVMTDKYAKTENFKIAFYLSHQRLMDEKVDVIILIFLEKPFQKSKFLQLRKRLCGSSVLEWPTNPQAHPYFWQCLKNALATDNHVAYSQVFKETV
# Assay: HEK293-Blue-hTLR-7 cells assay
# Assay type: cell-based
# Settings: HEK293-Blue-hTLR7 cells, R848 stimulation, 20 hrs, SEAP reporter; read-out: HEK/hTLR7 IC50
# Text: HEK293-Blue-hTLR-7 cells assay:
# A stable HEK293-Blue-hTLR-7 cell line was purchased from InvivoGen (Cat. #: hkb-htlr7, San Diego, California, USA). These cells were originally designed for studying the stimulation of human TLR7 by monitoring the activation of NF-κB. A SEAP (secreted embryonic alkaline phosphatase) reporter gene was placed under the control of the IFN-β minimal promoter fused to five NF-κB and AP-1-binding sites. The SEAP was induced by activating NF-κB and AP-1 via stimulating HEK-Blue hTLR7 cells with TLR7 ligands. Therefore the reporter expression was declined by TLR7 antagonist under the stimulation of a ligand, such as R848 (Resiquimod), for incubation of 20 hrs. The cell culture supernatant SEAP reporter activity was determined using QUANTI-Blue™ kit (Cat. #: rep-qb1, Invivogen, San Diego, Ca, USA) at a wavelength of 640 nm, a detection medium that turns purple or blue in the presence of alkaline phosphatase.
# HEK293-Blue-hTLR7 cells were incubated at a density of 250,000˜450,000 cells/mL in a volume of 170 μL in a 96-well plate in Dulbecco's Modified Eagle's medium (DMEM) containing 4.5 g/L glucose, 50 U/mL penicillin, […], […], 2 mM L-glutamine, 10% (v/v) heat-inactivated fetal bovine serum with addition of 20 μL test compound in a serial dilution in the presence of final DMSO at 1% and 10 μL of 20 uM R848 in above DMEM, perform incubation under 37° C. in a CO2 incubator for 20 hrs. Then 20 μL of the supernatant from each well was incubated with 180 μL Quanti-blue substrate solution at 37° C. for 2 hrs and the absorbance was read at 620˜655 nm using a spectrophotometer. The signaling pathway that TLR7 activation leads to downstream NF-κB activation has been widely accepted, and therefore similar reporter assay was modified for evaluating TLR7 antagonist.
row,Structure (SMILES),IC50 [nM]
1,"C[C@@H]1CN(c2ccc(C#N)n3ncc(F)c23)C[C@H](CN2CC3(C2)OCc2cc(N4CC5(CN(C)C5)C4)ccc23)O1 [Example 2, 3-fluoro-4-[(2R,6S)-2-methyl-6-[[6-(6-methyl-2,6-diazaspiro[3.3]heptan-2-yl)spiro[1H-isobenzofuran-3,3′-azetidine]-1′-yl]methyl]morpholin-4-yl]pyrazolo[1,5-a]pyridine-7-carbonitrile]",10
2,"C[C@@H]1CN(c2ccc(C#N)n3ncc(F)c23)C[C@H](CN2CC3(C2)OCc2cc(N[C@H]4CNC[C@H]4F)ccc23)O1 [Example 3, 3-fluoro-4-[(2S,6R)-2-[[6-[[(3S,4R)-4-fluoropyrrolidin-3-yl]amino]spiro[1H-isobenzofuran-3,3′-azetidine]-1′-yl]methyl]-6-methyl-morpholin-4-yl]pyrazolo[1,5-a]pyridine-7-carbonitrile]",20
3,"C[C@@H]1CN(c2ccc(C#N)n3ncc(F)c23)C[C@H](CN2CC3(C2)OCc2cc(N4CC5(CNCCO5)C4)ccc23)O1 [Example 4, 3-fluoro-4-[(2R,6S)-2-methyl-6-[[6-(5-oxa-2,8-diazaspiro[3.5]nonan-2-yl)spiro[1H-isobenzofuran-3,3′-azetidine]-1′-yl]methyl]morpholin-4-yl]pyrazolo[1,5-a]pyridine-7-carbonitrile]",16
4,"C[C@@H]1CN(c2ccc(C#N)n3ncc(F)c23)C[C@H](CN2CC3(C2)OCc2cc(N4CC[C@](C)(N)C4)ccc23)O1 [Example 5, 4-[(2S,6R)-2-[[6-[(3S)-3-amino-3-methyl-pyrrolidin-1-yl]spiro[1H-isobenzofuran-3,3′-azetidine]-1′-yl]methyl]-6-methyl-morpholin-4-yl]-3-fluoro-pyrazolo[1,5-a]pyridine-7-carbonitrile]",19
5,"C[C@@H]1CN(c2ccc(C#N)n3ncc(F)c23)C[C@H](CN2CC3(C2)OCc2cc(N4CC(N)C4)ccc23)O1 [Example 9, 4-[(2S,6R)-2-[[6-(3-aminoazetidin-1-yl)spiro[1H-isobenzofuran-3,3′-azetidine]-1′-yl]methyl]-6-methyl-morpholin-4-yl]-3-fluoro-pyrazolo[1,5-a]pyridine-7-carbonitrile]",5
6,"C[C@@H]1CN(c2ccc(C#N)n3ncc(F)c23)C[C@H](CN2CC3(C2)OCc2cc(N4C[C@H](N)[C@@H](O)C4)ccc23)O1 [Example 10, 4-[(2S,6R)-2-[[6-[(3S,4S)-3-amino-4-hydroxy-pyrrolidin-1-yl]spiro[1H-isobenzofuran-3,3′-azetidine]-1′-yl]methyl]-6-methyl-morpholin-4-yl]-3-fluoro-pyrazolo[1,5-a]pyridine-7-carbonitrile]",8
7,"C[C@@H]1CN(c2ccc(C#N)n3ncc(F)c23)C[C@H](CN2CC3(C2)OCc2cc(N4CC5(CNC5)C4)ccc23)O1 [Example 12, 4-[(2S,6R)-2-[[6-(2,6-diazaspiro[3.3]heptan-2-yl)spiro[1H-isobenzofuran-3,3′-azetidine]-1′-yl]methyl]-6-methyl-morpholin-4-yl]-3-fluoro-pyrazolo[1,5-a]pyridine-7-carbonitrile]",10
8,"C[C@@H]1CN(c2cc(=O)n(C)c3ncccc23)C[C@H](CN2CC3(C2)OCc2cc(N4CC(N)C4)ccc23)O1 [Example 13, 4-[(2S,6R)-2-[[6-(3-aminoazetidin-1-yl)spiro[1H-isobenzofuran-3,3′-azetidine]-1′-yl]methyl]-6-methyl-morpholin-4-yl]-1-methyl-1,8-naphthyridin-2-one]",10
9,"C[C@@H]1CN(c2ccc(C#N)n3nccc23)C[C@H](CN2CC3(C2)OCc2cc(N4CC(N)C4)ccc23)O1 [Example 19, 4-[(2S,6R)-2-[[6-(3-aminoazetidin-1-yl)spiro[1H-isobenzofuran-3,3′-azetidine]-1′-yl]methyl]-6-methyl-morpholin-4-yl]pyrazolo[1,5-a]pyridine-7-carbonitrile]",19
10,"C[C@@H]1CN(c2ccc(C#N)n3ncc(F)c23)C[C@H](CN2CC3(C2)OCc2cc(N4CC5(CN(C)C5)C4)cnc23)O1 [Example 22, 3-fluoro-4-[(2R,6S)-2-methyl-6-[[3-(6-methyl-2,6-diazaspiro[3.3]heptan-2-yl)spiro[5H-furo[3,4-b]pyridine-7,3′-azetidine]-1′-yl]methyl]morpholin-4-yl]pyrazolo[1,5-a]pyridine-7-carbonitrile]",9

# Other lines, results leading:
row,IC50 [nM],Structure (SMILES)
1,12,"C[C@@H]1CN(c2ccc(C#N)n3ncc(F)c23)C[C@H](CN2CC3(C2)OCc2cc(N4CC(C)(N)C4)ccc23)O1 [Example 1, 4-[(2S,6R)-2-[[6-(3-amino-3-methyl-azetidin-1-yl)spiro[1H-isobenzofuran-3,3′-azetidine]-1′-yl]methyl]-6-methyl-morpholin-4-yl]-3-fluoro-pyrazolo[1,5-a]pyridine-7-carbonitrile]"
2,8,"C[C@@H]1CN(c2ccc(C#N)n3ncc(F)c23)C[C@H](CN2CC3(C2)OCc2cc(N4CCNCC4)ccc23)O1 [Example 6, 3-fluoro-4-[(2R,6S)-2-methyl-6-[(6-piperazin-1-ylspiro[1H-isobenzofuran-3,3′-azetidine]-1′-yl)methyl]morpholin-4-yl]pyrazolo[1,5-a]pyridine-7-carbonitrile]"
3,19,"[2H]c1ccc2c(N3C[C@H](CN4CC5(C4)OCc4cc(N6C[C@@H](N)[C@H](OC)C6)ccc45)O[C@H](C)C3)ccc(C#N)c2n1 [Example 16, 5-[(2S,6R)-2-[[6-[(3R,4R)-3-amino-4-methoxy-pyrrolidin-1-yl]spiro[1H-isobenzofuran-3,3′-azetidine]-1′-yl]methyl]-6-methyl-morpholin-4-yl]-2-deuterio-quinoline-8-carbonitrile]"
4,7,"[2H]c1ccc2c(N3C[C@H](CN4CC5(C4)OCc4cc(N6CCNCC6)ccc45)O[C@H](C)C3)ccc(C#N)c2n1 [Example 18, 2-deuterio-5-[(2R,6S)-2-methyl-6-[(6-piperazin-1-ylspiro[1H-isobenzofuran-3,3′-azetidine]-1′-yl)methyl]morpholin-4-yl]quinoline-8-carbonitrile]"
5,23,"C[C@@H]1CN(c2ccc(C#N)n3nccc23)C[C@H](CN2CC3(C2)OCc2cc(N4CC(C)(N)C4)ncc23)O1 [Example 25, 4-[(2S,6R)-2-[[6-(3-amino-3-methyl-azetidin-1-yl)spiro[1H-furo[3,4-c]pyridine-3,3′-azetidine]-1′-yl]methyl]-6-methyl-morpholin-4-yl]pyrazolo[1,5-a]pyridine-7-carbonitrile]"
6,24,"C[C@@H]1CN(c2ccc(C#N)n3nccc23)C[C@H](CN2CC3(C2)OCc2cc(N4CC(C)(N)C4)cnc23)O1 [Example 26, 4-[(2S,6R)-2-[[3-(3-amino-3-methyl-azetidin-1-yl)spiro[5H-furo[3,4-b]pyridine-7,3′-azetidine]-1′-yl]methyl]-6-methyl-morpholin-4-yl]pyrazolo[1,5-a]pyridine-7-carbonitrile]"
7,7,"[2H]c1ccc2c(N3C[C@H](CN4CC5(C4)OCc4cc(N6C[C@H]7NCCO[C@@H]7C6)ncc45)O[C@H](C)C3)ccc(C#N)c2n1 [Example 28, 5-[(2S,6R)-2-[[6-[(4aR,7aR)-3,4,4a,5,7,7a-hexahydro-2H-pyrrolo[3,4-b][1,4]oxazin-6-yl]spiro[1H-furo[3,4-c]pyridine-3,3′-azetidine]-1′-yl]methyl]-6-methyl-morpholin-4-yl]-2-deuterio-quinoline-8-carbonitrile]"
